Results published in ChEMBL document CHEMBL1201862, “PubChem BioAssay data set” (2004).
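All cell lines were grown in 96-well plates and treated with compound for 48 hours. GI50 marks 50% less growth.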 The source made the active and inactive calls. Rule as the data show it: active = GI50 up to about 1.1 µM and inactive = higher.

What was measured:
Experiment in all cases: DTP human tumour cell line panel, 48 h
[1] = tested on: MDA-MB-435
[2] = tested on: UACC-257
[3] = tested on: A498
[4] = tested on: K562
[5] = tested on: Malme-3M
[6] = tested on: SW-620
[7] = tested on: RPMI-8226
[8] = tested on: COLO 205
[9] = tested on: OVCAR-4
[10] = tested on: DU-145
[11] = tested on: SF-539
[12] = tested on: SK-MEL-2
[13] = tested on: BT-549
[14] = tested on: CAKI-1
[15] = tested on: A549
[16] = tested on: HCC 2998
[17] = tested on: HL-60
[18] = tested on: IGROV-1
[19] = tested on: UACC-62
[20] = tested on: NCI/ADR-RES
[21] = tested on: SR
[22] = tested on: SK-MEL-5
[23] = tested on: OVCAR-8
[24] = tested on: NCI-H522
[25] = tested on: TK-10
[26] = tested on: NCI-H226
[27] = tested on: T47D
[28] = tested on: HCT-116
[29] = tested on: MDA-MB-231
[30] = tested on: OVCAR-3
[31] = tested on: SNB-19
[32] = tested on: MOLT-4
[33] = tested on: NCI-H460
[34] = tested on: HOP-62
[35] = tested on: LOX IMVI
[36] = tested on: HOP-92
[37] = tested on: Hs-578T
[38] = tested on: OVCAR-5
[39] = tested on: U-251
[40] = tested on: UO-31
[41] = tested on: SNB-75
[42] = tested on: HT-29
[43] = tested on: MDA-N
[44] = tested on: KM12
[45] = tested on: SF-295
[46] = tested on: SK-MEL-28
[47] = tested on: HCT-15
[48] = tested on: PC-3
[49] = tested on: 786-0
[50] = tested on: RXF 393
[51] = tested on: ACHN
[52] = tested on: EKVX
[53] = tested on: SF-268
[54] = tested on: SK-OV-3
[55] = tested on: M14
[56] = tested on: MCF7
[57] = tested on: NCI-H23
[58] = tested on: SN12C
[59] = tested on: CCRF-CEM

Which GI50 [1] does the source give for `CC(=O)OC1C(O)COC(O[C@H]2CC[C@]34C[C@]35CC[C@]3(C)C([C@@]6(C)CC[C@@H](C(C)(C)O)O6)[C@@H](O)C[C@@]3(C)C5C[C@H](OC3OCC(O)C(O)C3O)[C@H]4C2(C)C)C1OC1OCC(O)C(O)C1O` (stereo not given in full) here?
Its GI50 is > 100 µM (inactive).

What about the GI50 [2] of the same compound?
Its GI50 is > 100 µM (inactive).

And the GI50 [3]?
The GI50 was > 100 µM (inactive).

What about the GI50 [4] of the same compound?
Its GI50 is > 100 µM (inactive).

And the GI50 [5]?
The GI50 was > 100 µM (inactive).

What about the GI50 [6] of the same compound?
The GI50 was > 100 µM (inactive).

And the GI50 [7]?
The GI50 was > 100 µM (inactive).

And the GI50 [8]?
Its GI50 is > 100 µM (inactive).

What about the GI50 [9] of the same compound?
Its GI50 is > 100 µM (inactive).

And the GI50 [10]?
The GI50 was > 100 µM (inactive).

And the GI50 [11]?
Its GI50 is > 100 µM (inactive).

And the GI50 [12]?
The GI50 was > 100 µM (inactive).

What about the GI50 [13] of the same compound?
Its GI50 is > 100 µM (inactive).

What about the GI50 [14] of the same compound?
Its GI50 is > 100 µM (inactive).

And the GI50 [15]?
The GI50 was > 100 µM (inactive).

And the GI50 [16]?
Its GI50 is > 100 µM (inactive).

And the GI50 [17]?
Its GI50 is 11.6 µM (inactive).

What about the GI50 [18] of the same compound?
The GI50 was > 100 µM (inactive).

And the GI50 [19]?
Its GI50 is > 100 µM (inactive).

What about the GI50 [20] of the same compound?
Its GI50 is > 100 µM (inactive).

And the GI50 [21]?
Its GI50 is > 100 µM (inactive).

And the GI50 [22]?
Its GI50 is > 100 µM (inactive).

What about the GI50 [23] of the same compound?
The GI50 was > 100 µM (inactive).

What about the GI50 [24] of the same compound?
Its GI50 is > 100 µM (inactive).

What about the GI50 [25] of the same compound?
The GI50 was > 100 µM (inactive).

What about the GI50 [26] of the same compound?
Its GI50 is > 100 µM (inactive).

What about the GI50 [27] of the same compound?
Its GI50 is > 100 µM (inactive).

And the GI50 [28]?
The GI50 was > 100 µM (inactive).

What about the GI50 [29] of the same compound?
Its GI50 is > 100 µM (inactive).

And the GI50 [30]?
Its GI50 is > 100 µM (inactive).

And the GI50 [31]?
The GI50 was > 100 µM (inactive).

What about the GI50 [32] of the same compound?
The GI50 was > 100 µM (inactive).

What about the GI50 [33] of the same compound?
Its GI50 is > 100 µM (inactive).

And the GI50 [34]?
The GI50 was > 100 µM (inactive).

What about the GI50 [35] of the same compound?
Its GI50 is > 100 µM (inactive).

What about the GI50 [36] of the same compound?
Its GI50 is > 100 µM (inactive).

What about the GI50 [37] of the same compound?
The GI50 was > 100 µM (inactive).

And the GI50 [38]?
Its GI50 is > 100 µM (inactive).

And the GI50 [39]?
Its GI50 is > 100 µM (inactive).

What about the GI50 [40] of the same compound?
The GI50 was > 100 µM (inactive).

What about the GI50 [41] of the same compound?
The GI50 was > 100 µM (inactive).

What about the GI50 [42] of the same compound?
Its GI50 is > 100 µM (inactive).

What about the GI50 [43] of the same compound?
Its GI50 is > 100 µM (inactive).

What about the GI50 [44] of the same compound?
Its GI50 is > 100 µM (inactive).

What about the GI50 [45] of the same compound?
Its GI50 is > 100 µM (inactive).

And the GI50 [46]?
Its GI50 is > 100 µM (inactive).

What about the GI50 [47] of the same compound?
The GI50 was over 100 µM.

What about the GI50 [48] of the same compound?
The GI50 was > 100 µM (inactive).

And the GI50 [49]?
The GI50 was > 100 µM (inactive).

And the GI50 [50]?
The GI50 was > 86.3 µM (inactive).

And the GI50 [51]?
Its GI50 is > 100 µM (inactive).

And the GI50 [52]?
The GI50 was > 100 µM (inactive).

What about the GI50 [53] of the same compound?
Its GI50 is > 100 µM (inactive).

What about the GI50 [54] of the same compound?
Its GI50 is > 100 µM (inactive).

And the GI50 [55]?
The GI50 was > 100 µM (inactive).

And the GI50 [56]?
Its GI50 is > 100 µM (inactive).

And the GI50 [57]?
The GI50 was > 100 µM (inactive).

And the GI50 [58]?
Its GI50 is > 100 µM (inactive).

With `COC(=O)CNS(=O)(=O)c1ccc(-c2c3nc(c(-c4ccc(S(=O)(=O)NCC(=O)OC)cc4)c4ccc([nH]4)c(-c4ccc(S(=O)(=O)NCC(=O)OC)cc4)c4nc(c(-c5ccc(S(=O)(=O)NCC(=O)OC)cc5)c5ccc2[nH]5)C=C4)C=C3)cc1` as the compound, how does the GI50 [1] read?
The GI50 was > 100 µM (inactive).

And the GI50 [2]?
Its GI50 is > 100 µM (inactive).

What about the GI50 [3] of the same compound?
The GI50 was 64.9 µM (inactive).

What about the GI50 [4] of the same compound?
The GI50 was > 100 µM (inactive).

What about the GI50 [5] of the same compound?
Its GI50 is > 100 µM (inactive).

What about the GI50 [6] of the same compound?
Its GI50 is > 100 µM (inactive).

And the GI50 [7]?
Its GI50 is > 100 µM (inactive).

What about the GI50 [8] of the same compound?
Its GI50 is > 100 µM (inactive).

What about the GI50 [9] of the same compound?
The GI50 was > 100 µM (inactive).

And the GI50 [10]?
Its GI50 is > 100 µM (inactive).

What about the GI50 [11] of the same compound?
Its GI50 is > 100 µM (inactive).

And the GI50 [12]?
The GI50 was > 100 µM (inactive).

What about the GI50 [13] of the same compound?
The GI50 was > 100 µM (inactive).

What about the GI50 [14] of the same compound?
The GI50 was > 100 µM (inactive).

What about the GI50 [15] of the same compound?
Its GI50 is > 100 µM (inactive).

And the GI50 [16]?
Its GI50 is > 100 µM (inactive).

What about the GI50 [17] of the same compound?
Its GI50 is > 100 µM (inactive).

What about the GI50 [18] of the same compound?
The GI50 was > 100 µM (inactive).

And the GI50 [19]?
Its GI50 is 62.2 µM (inactive).

And the GI50 [20]?
Its GI50 is > 100 µM (inactive).

What about the GI50 [21] of the same compound?
Its GI50 is > 100 µM (inactive).

What about the GI50 [22] of the same compound?
The GI50 was > 100 µM (inactive).

And the GI50 [23]?
The GI50 was > 100 µM (inactive).

What about the GI50 [24] of the same compound?
The GI50 was > 100 µM (inactive).

What about the GI50 [25] of the same compound?
The GI50 was > 100 µM (inactive).

What about the GI50 [27] of the same compound?
Its GI50 is > 100 µM (inactive).

What about the GI50 [28] of the same compound?
Its GI50 is > 100 µM (inactive).

What about the GI50 [29] of the same compound?
Its GI50 is 42.2 µM (inactive).

What about the GI50 [30] of the same compound?
Its GI50 is > 100 µM (inactive).

What about the GI50 [31] of the same compound?
Its GI50 is > 100 µM (inactive).

And the GI50 [32]?
Its GI50 is > 100 µM (inactive).

And the GI50 [33]?
The GI50 was > 100 µM (inactive).

And the GI50 [34]?
Its GI50 is > 100 µM (inactive).

What about the GI50 [35] of the same compound?
The GI50 was > 100 µM (inactive).

And the GI50 [37]?
Its GI50 is > 100 µM (inactive).

And the GI50 [38]?
The GI50 was > 100 µM (inactive).

And the GI50 [39]?
Its GI50 is 82.6 µM (inactive).

And the GI50 [40]?
The GI50 was > 100 µM (inactive).

And the GI50 [41]?
The GI50 was > 100 µM (inactive).

And the GI50 [42]?
The GI50 was > 100 µM (inactive).

And the GI50 [43]?
The GI50 was > 100 µM (inactive).

What about the GI50 [44] of the same compound?
Its GI50 is 50.7 µM (inactive).

What about the GI50 [45] of the same compound?
The GI50 was > 100 µM (inactive).

What about the GI50 [46] of the same compound?
Its GI50 is > 100 µM (inactive).

What about the GI50 [47] of the same compound?
The GI50 was over 100 µM.

And the GI50 [48]?
Its GI50 is > 100 µM (inactive).

And the GI50 [59]?
Its GI50 is > 100 µM (inactive).

And the GI50 [49]?
The GI50 was > 100 µM (inactive).

And the GI50 [50]?
Its GI50 is > 100 µM (inactive).

And the GI50 [51]?
Its GI50 is > 100 µM (inactive).

What about the GI50 [52] of the same compound?
Its GI50 is > 100 µM (inactive).

And the GI50 [53]?
Its GI50 is > 100 µM (inactive).

What about the GI50 [54] of the same compound?
Its GI50 is > 100 µM (inactive).

What about the GI50 [55] of the same compound?
Its GI50 is 18.7 µM (inactive).

What about the GI50 [56] of the same compound?
The GI50 was > 100 µM (inactive).

And the GI50 [57]?
Its GI50 is > 100 µM (inactive).

And the GI50 [58]?
The GI50 was > 100 µM (inactive).
